Test results taken from patent publication US11369657B2, “Small molecule polypeptide for preventing and restraining inflammation and application of same” (SHANGHAI FIRST PEOPLE'S HOSPITAL, priority 2011, dated 2022).
“Also recorded” adds a separate entry of the source. Peptide text beside a SMILES is read from it.

Tests used:
[1] = test system: uveitis in rats; test: LPS-induced uveitis in rats, intravitreal injection of polypeptide; type: in vivo, rat; conditions: for protein concentration in rat aqueous humor / exuded cells count in rat anterior chamber / aqueous humor: 24 hours after LPS injection, vs LPS+PBS group; for protein concentration in rat aqueous humor: BCA method, LS22 intravitreally; for exuded cells count in rat anterior chamber / aqueous humor: LS22 10, 50 or 100 μg intravitreally
Method: 8-week old male wistar rats were randomly divided into 5 groups with 10 rats for each, which are blank+PBS, LPS+PBS group, LPS+LS22 10 μg group, LPS+LS22 50 μg group, LPS+LS 22 100 μg group. 0.15 ml of pentobarbital (5.47 g/100 ml normal saline) was intraperitoneally injected into the rats for anesthesia. 100 μl of LPS (2 μg/μl) was subcutaneously injected into the right hindpaw of rats both in treating group and positive control group. An equal volume of normal saline was injected into the same position of the rats in blank+PBS group. 5% tropicamide and 1% tetracaine was dropped on the eye for mydriasis and local anesthesia. Under operating microscope, 10 μl of polypeptide or PBS of equal volume was intravitreally injected of bilateral eyes. The pars plana was vertically punctured by a 29-gauge microsyringe at 1 mm from corneal limbus and the vitreous cavity was reached. The drug liquid was then injected into the center of the vitreous cavity under direct vision and the needle was pulled out quickly after remaining for a few seconds. All above steps were conducted aseptically.
24 hours after LPS was injected, 6 rats in each experimental group were subjected to anterior chamber puncture by 30 G needle under deep anesthesia, and then bilateral aqueous humor was collected. Other 4 rats were sacrificed by cervical dislocation and the eyeballs were taken and immobilized.
The aqueous humor sample was diluted to 1:5 by trypan blue and then added into hemocytometer for manual counting under optical microscope, and total protein concentration was determined by BCA method.
The eyeballs were taken and immobilized by neutral formaldehyde (10%) and stored at 4° C. The sample was embedded into paraffin, cut into sagittal slices with the thickness of 5 μm, and then subjected to HE staining. The iris and ciliary body, anterior chamber, vitreous body and retina of the eyeballs were observed under optical microscope. The exuded cells in anterior chamber and vitreous cavity were counted by the same pathologist.
The experiment date was shown as x±s. A one-way ANOVA was used to compare the exuded cells and total protein concentration between these groups, and P<0.05 represents statistical significance.

[2] = test system: RAW264.7 cells; test: Cell viability assay (MTS); type: cell-based, mouse; conditions: RAW264.7 cells co-incubated 24 hours
Method: RAW264.7 cells were placed into a 96-well plate for 24-hour adherent culture, and then peptides with different concentrations were added into each well and co-cultured for another 24 hours, while no treatment was taken to the control group. 20 μl of MTS solution was added into each well after 24 hours and cultured for another 3 hours. The culture plate was taken to determine the absorbance of each well at 490 nm.
(§1) The experiment date was shown as x±s. A SPSS 11.0 statistical package was used for statistic analysis and a one-way ANOVA was used to compare RAW264.7 cell viability results, TNF-α and IL-6 level between the groups, and P<0.05 represents statistical significance.

[3] = test system: TNF-α; test: TNF-α level in supernatant of LPS-stimulated RAW264.7 cells (ELISA); type: cell-based, mouse; conditions: 0.1-10 μM LS22 pretreatment 30 min, LPS 100 ng/mL 24 hours
Method: (§2) Mouse RAW264.7 cells were inoculated on the 24-well cell culture plate (400 μl/well). RAW264.7 was pretreated with 0.1-10 μM of LS22 for 30 min, and then LPS (100 ng/mL) was added and co-incubated for 24 hours. Cell supernatant in each well was collected and TNF-α and IL-6 level was determined by ELISA kits.
as §1
(§3) Derived Polypeptides were prepared as follows. Polypeptides were prepared according to the method in Example 1, and the inhibiting effect of the polypeptides on ocular inflammation was determined according to Examples 2-3.

[4] = test system: IL-6; test: IL-6 level in supernatant of LPS-stimulated RAW264.7 cells (ELISA); type: cell-based, mouse; conditions: 0.1-10 μM LS22 pretreatment 30 min, LPS 100 ng/mL 24 hours
Method: as §2, §1, §3

[5] = Water solubility of the synthesized powder; type: physicochemical; conditions: white powder
Method: 7. 120 mg of polypeptide LS22 was obtained as white powder with good water solubility (purification >95%) and then sealed and stored for use at −20° C.

[6] = test system: ocular inflammation; test: Inhibiting effect of derived polypeptides on ocular inflammation according to Examples 2-3
Method: as §3

Row | water solubility [5] | Compound | protein concentration in rat aqueous humor [1] | protein concentration in rat aqueous humor ([1]; listed as LSS) | exuded cells count in rat anterior chamber / aqueous humor [1] | exuded cells count in rat anterior chamber / aqueous humor ([1]; listed as LSS) | inflammatory cells in tissues (histopathologic examination) ([1]; HE staining, anterior chamber, ciliary body, posterior vitreous cavity, after LPS injection) | inhibition of uveitis ([1]; rats, LPS-induced) | toxicity to the cells [2] | cell viability compared with the control group ([2]; MTS) | LPS-induced TNF-α level in cell supernatant [3] | LPS-induced IL-6 level in cell supernatant [4] | anti-inflammation effect ([6]; derived polypeptides, 10 μg group or 10 μM) | anti-inflammation effect compared with LS22 ([6]; weaker than LS22)
1 | good | CC[C@H](C)[C@H](NC(=O)[C@H](CO)NC(=O)[C@H](CC(N)=O)NC(=O)[C@H](Cc1c[nH]cn1)NC(=O)[C@H](CO)NC(=O)[C@H](CC(C)C)NC(=O)[C@H](CC(=O)O)NC(=O)[C@@H](N)CC(C)C)C(=O)N[C@@H](CO)C(=O)N[C@@H](CCC(N)=O)C(=O)N[C@@H](CCC(=O)O)C(=O)N[C@@H](CO)C(=O)N[C@@H](C)C(=O)N[C@@H](CC(C)C)C(=O)N[C@@H](Cc1ccc(O)cc1)C(=O)N[C@@H](CC(C)C)C(=O)N[C@@H](CC(C)C)C(=O)N[C@@H](CCC(=O)O)C(=O)N[C@H](C(=O)N[C@@H](CC(C)C)C(=O)N1CCC[C@H]1C(=O)N[C@@H](CO)C(=O)O)[C@@H](C)O [LS22] (H-LDLSHNSISQESALYLLETLPS-OH; N-terminus assumed) | remarkably decreased | significantly reduced | remarkably reduced | significantly reduced | greatly reduced; also recorded: significantly reduced | significantly inhibited uveitis | no toxicity was observed | no statistically significant difference | significantly inhibited; also recorded: remarkably inhibited | significantly inhibited; also recorded: remarkably inhibited | – | –
2 | – | Polypeptide 7: sequence as set forth by SEQ ID NO.: 5 (ALQSLNLSENGLSLDAVLGLV) | – | – | – | – | – | – | – | – | – | – | exhibits an anti-inflammation effect to some extent | about 30%
